In patent US7521448B2, “N-substituted benzimidazolyl c-Kit inhibitors” (OSI Pharmaceuticals, Inc., priority 2003, dated 2009):
Where a name gives a salt, the structure may show the parent alone.

Tests used:
[1] = test system: MO7e human leukemia cells; details: cited from earlier work
[2] = test system: MO7e human leukemia cells; details: cited from earlier work; remark: listed apart in the source
[3] = molecular target: T1, wild-type c-Kit receptor protein endogenously expressed in H526 cells (Homo sapiens, UniProt P10721); experiment: Assay for inhibition of c-Kit in intact cells (cell-based ELISA of SCF-induced tyrosine phosphorylation); details: read-out: results in the assay above (IC50, inhibition of SCF-induced tyrosine phosphorylation of c-Kit)
T1 construct: wild-type c-Kit receptor protein that is endogenously expressed in H526 cells; host or cells: H526 human small cell lung cancer cells
T1 sequence (P10721 26-976): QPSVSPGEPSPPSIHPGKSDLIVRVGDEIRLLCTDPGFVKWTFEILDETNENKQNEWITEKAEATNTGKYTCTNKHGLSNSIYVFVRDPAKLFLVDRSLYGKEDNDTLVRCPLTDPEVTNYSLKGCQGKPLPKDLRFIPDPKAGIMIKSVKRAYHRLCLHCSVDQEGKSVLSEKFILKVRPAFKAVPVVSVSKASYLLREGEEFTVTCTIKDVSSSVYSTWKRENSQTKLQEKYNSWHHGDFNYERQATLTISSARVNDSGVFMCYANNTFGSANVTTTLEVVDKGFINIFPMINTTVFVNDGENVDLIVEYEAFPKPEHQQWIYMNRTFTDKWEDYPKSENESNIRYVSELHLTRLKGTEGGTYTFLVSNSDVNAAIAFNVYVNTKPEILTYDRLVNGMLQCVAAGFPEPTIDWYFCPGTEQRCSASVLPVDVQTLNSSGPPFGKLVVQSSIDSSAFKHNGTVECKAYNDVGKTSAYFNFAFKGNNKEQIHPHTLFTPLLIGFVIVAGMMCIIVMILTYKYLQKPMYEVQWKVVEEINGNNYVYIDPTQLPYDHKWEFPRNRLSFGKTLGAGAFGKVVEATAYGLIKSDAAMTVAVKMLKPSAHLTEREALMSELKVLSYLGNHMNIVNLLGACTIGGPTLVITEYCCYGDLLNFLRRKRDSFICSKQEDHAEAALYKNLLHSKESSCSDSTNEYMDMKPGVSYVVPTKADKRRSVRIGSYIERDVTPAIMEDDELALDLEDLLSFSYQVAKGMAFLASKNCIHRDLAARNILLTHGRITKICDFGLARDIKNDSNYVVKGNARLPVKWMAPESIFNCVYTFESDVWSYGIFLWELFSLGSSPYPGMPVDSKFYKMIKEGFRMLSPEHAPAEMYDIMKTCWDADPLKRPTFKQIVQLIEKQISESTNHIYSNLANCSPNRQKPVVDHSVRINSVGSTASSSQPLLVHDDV
Procedure: I. Assay for Inhibition of c-Kit in Intact Cells
The ability of compounds to inhibit the tyrosine kinase activity of c-Kit was determined in a cell-based ELISA assay using the H526 cell line (ATCC # CRL-5811), which was originally derived from a human small cell lung cancer. The assay determines the ability of compounds to block ligand-stimulated tyrosine phosphorylation of the wild-type c-Kit receptor protein that is endogenously expressed in H526 cells. Cells are pre-incubated with compounds at various concentrations prior to addition of stem cell factor (SCF), the ligand for the c-Kit receptor tyrosine kinase. […] The phosphotyrosine content of the receptor protein is then monitored by quantitation of the degree of binding of an antibody that recognizes only the phosphorylated tyrosine residues within the captured protein. The antibody used has a reporter enzyme (e.g. horseradish peroxidase, HRP) covalently attached, such that binding of antibody to phosphorylated c-Kit can be determined quantitatively by incubation with an appropriate HRP substrate. […]
Comparison of the assay signals obtained in the presence of compound with those of the positive and negative controls (cells incubated in the presence or absence of SCF, with no compound added), allows the degree of inhibition of c-Kit receptor tyrosine phosphorylation to be determined over a range of compound concentrations. […]

Structure (SMILES) | Kit ligand-stimulated growth of MO7e human leukemia cells ([1]; Kit ligand-stimulated) | apoptosis ([1]; under Kit ligand-stimulated conditions, MO7e cells) | GM-CSF stimulated growth of MO7e human leukemia cells [2] | IC50 [3] [µM]
Cc1ccc(NC(=O)c2ccc(CN3CCN(C)CC3)cc2)cc1Nc1nccc(-c2cccnc2)n1 [Gleevec™, imatinib mesylate] | inhibited | induces apoptosis | not affected | –
O=C(NCc1cccnc1)c1ccc2c(c1)ncn2-c1ccc(OCCOc2ncc(C(F)(F)F)cc2Cl)cc1 [Compound H13, N-Pyridin-3-ylmethyl-1-{4-[2-(3-chloro-5-trifluoromethylpyridin-2-yloxy)ethoxy]phenyl}-1H-benzimidazole-5-carboxamide] | – | – | – | > 10
O=C(NCc1cccnc1)c1ccc2c(c1)ncn2-c1cccc(NS(=O)(=O)c2cccc(Cl)c2)c1 [Compound Q5, 1-(3-{[(3-Chlorophenyl)sulfonyl]amino}phenyl)-N-pyridin-3-ylmethyl-1H-benzimidazole-5-carboxamide] | – | – | – | > 10
